Assay [1] deals with S-adenosylmethionine decarboxylase (SAMDC). The experiment in a line: SAMDC activity in human melanoma xenografts in-vivo. For orientation: Xenograft models place foreign cells or tissue in a host animal.
Assay [2] has as its system polyamine pools of melanoma tumor. The experiment in a line: polyamine pools in human melanoma xenografts in-vivo. The settings on record: for polyamine pools: 16 hours after final injection.
Assay [3] relates to spermidine/spermine N^1 -acetyltransferase (SSAT). In words: SSAT induction in host tissue of treated mice. The format is in vivo, mouse. The settings on record: spleen (PANUT-3 mice), 80 mg/kg.
Another assay concerns natural polyamine pools. The settings on record: in-vitro; cited from earlier work.
In assay [4] the test system is SH-1 human melanoma cells. In words: growth of SH-1 melanoma cells in-vitro (FIG. 5). The format is cell-based. Conditions: SH-1, 10 μM BESPM, 48 hours. How it is done: As mentioned previously, cells from malignant solid tumor respond to polyamine analog therapy heterotypically. SSAT induction and antitumor response may vary not only among the solid tumor tissue type, but also with the clonal line of tumor of a particular solid tissue type. However, a correlation between the level of induction of SSAT and the potency of antitumor response has been observed in tumors of a particular solid tissue type. For example, seven human melanoma cell lines were assayed in-vitro for their response, as determined by cell growth and level of SSAT induction, to 10 μM BESPM at 48 hours post-treatment. As summarized in FIG. 5, growth among the cell lines decreases as SSAT induction increases.

Setting [5] is: MALME-3 tumor, 40 mg/kg 3x/day 6 days, 16 hrs post-treatment.
The mark [6] stands for this setting: MALME-3 tumor, 40 mg/kg, 2 wks post-treatment.

Take `CCNCCCNCCCNCCCNCC` [BENSPM, N^1,N^11 -bis(ethyl)norspermine]: the “SAMDC levels” value in assay [1] (MALME-3 study) is “ODC and SAMDC levels were not suppressed”; in assay [1] (PANUT-3 study), “ODC and SAMDC levels were not suppressed”. Besides, the PUT pool in assay [2] (setting [5]) was 20/20; in assay [2] (setting [6]) it was 370/290. Moreover, the SPD pool is 50/20 in assay [2] (setting [5]) and 560/160 in assay [2] (setting [6]). Moreover, the figures for the SPM pool in assay [2] (setting [5]) and in assay [2] (setting [6]) were 40/30 and 200/80, respectively. In addition, the N-acetylspermidine level in assay [2] (setting [6]) is reported as 240/180. Also, the polyamine pools result in assay [2] (MALME-3 tumor) and in assay [2] (PANUT-3 tumor) was “almost totally depleted” each time. Besides, the SSAT activity is on record as 48/40 in assay [3] (2 wks post-treatment) and 163/322 in assay [3] (16 hrs post-treatment).
Regarding `CCNCCCNCCCCNCCCNCC` [BESPM, N^1,N^12-bis(ethyl)spermine], the natural polyamine pools result in the assay on natural polyamine pools was “deplete natural polyamine pools”. Also, the “growth inhibition (FIG. 5)” value in assay [4] is given as “least growth inhibition”.

The record behind these values is US5498522A, “Methods for the use of spermidine/spermine N^1 -acetyltransferase as a prognostic indicator and/or a tumor response marker” (priority 1993, dated 1996).
